Among the test systems are DU-145 prostate; SK-OV-3 ovarian; SNB-75 CNS; SR leukemia; OVCAR-5 ovarian; SF-295 CNS; A498 renal; HCT-15 colon; LOX IMVI melanoma; HCC-2998 colon.
What all share (test): NCI tumour cell line growth inhibition, 48 h

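96-well plates; 48 h exposure; 5 concentrations. Endpoints by linear interpolation between flanking doses. Not reached: highest tested concentration assigned. Here, GI50 denotes the concentration required for 50% inhibition of growth. TGI is the concentration that stops growth completely.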

For `O=C(CN1CCN(c2ncccn2)CC1)Nc1ccc(Cl)cc1C(=O)c1ccccc1Cl`, the GI50 in the assay on DU-145 prostate is more than 100 µM; in the assay on SK-OV-3 ovarian it was more than 100 µM; in the assay on SNB-75 CNS it was 54.9 µM; with SR leukemia it was 67.8 µM; in the assay on OVCAR-5 ovarian it was more than 100 µM; with SF-295 CNS it was more than 100 µM. For the same compound, the GI50 in the assay with A498 renal, in the assay on HCT-15 colon, with LOX IMVI melanoma and with HCC-2998 colon was more than 100 µM each time. The TGI with DU-145 prostate, with SK-OV-3 ovarian, in the assay with SNB-75 CNS, with SR leukemia, in the assay on OVCAR-5 ovarian and in the assay on SF-295 CNS was more than 100 µM each time. The TGI in the assay on A498 renal, in the assay with HCT-15 colon, with LOX IMVI melanoma and in the assay with HCC-2998 colon was more than 100 µM each time.

`COc1cc(O)c([C@@H]2C[C@H](CCc3ccc(O)cc3)O[C@H](c3ccc(O)cc3)C2)c(O)c1C(=O)/C=C/c1ccc(O)cc1`: the GI50 in the assay with DU-145 prostate was 3.15 µM; in the assay with SK-OV-3 ovarian, 2.74 µM; in the assay on SNB-75 CNS it was 2.86 µM; with SR leukemia, 2.42 µM; in the assay on OVCAR-5 ovarian it was 3.81 µM; in the assay with SF-295 CNS, 3.83 µM. Further, the GI50 was 4.24 µM with A498 renal, 2.45 µM in the assay with HCT-15 colon, 1.93 µM in the assay on LOX IMVI melanoma and 0.558 µM with HCC-2998 colon. Further, the TGI in the assay on DU-145 prostate stood at 10.1 µM; with SK-OV-3 ovarian, 6.11 µM; in the assay on SNB-75 CNS it was 8.22 µM; in the assay on SR leukemia it was 4.8 µM; in the assay on OVCAR-5 ovarian, 12.5 µM; in the assay with SF-295 CNS, 17.9 µM. Also, the TGI with A498 renal turned out to be 11.3 µM; in the assay with HCT-15 colon it was 6.88 µM; in the assay with LOX IMVI melanoma, 3.63 µM; in the assay with HCC-2998 colon it was 1.73 µM.

In the case of `CCOc1cc2ncc(C#N)c(Nc3ccc(OCc4cccc(F)c4)c(Cl)c3)c2cc1NC(=O)CC1CCSS1` (centres undefined), the GI50 in the assay with DU-145 prostate is 0.561 µM; with SK-OV-3 ovarian it was 0.476 µM; with SNB-75 CNS, more than 25 µM; with SR leukemia, 0.68 µM; in the assay on OVCAR-5 ovarian it was more than 25 µM; in the assay with SF-295 CNS, more than 25 µM. The GI50 in the assay on A498 renal is more than 25 µM; in the assay with HCT-15 colon, 2.76 µM; with LOX IMVI melanoma, 0.447 µM; in the assay on HCC-2998 colon, 0.484 µM. In addition, the TGI with DU-145 prostate was 1.36 µM; with SK-OV-3 ovarian, 0.905 µM; in the assay with SNB-75 CNS, more than 25 µM; in the assay with SR leukemia it was more than 25 µM; with OVCAR-5 ovarian, more than 25 µM; with SF-295 CNS, more than 25 µM. Further, the TGI is more than 25 µM in the assay on A498 renal, more than 25 µM with HCT-15 colon, 1.01 µM in the assay with LOX IMVI melanoma and 0.974 µM with HCC-2998 colon.

With `N=C1C(c2nc(-c3ccc(Br)cc3)cs2)=C(O)CN1Cc1cccnc1`, the GI50 with DU-145 prostate was 17.4 µM; with SK-OV-3 ovarian, 25.3 µM; in the assay with SR leukemia it was 17.3 µM; with OVCAR-5 ovarian, 2.66 µM; in the assay with SF-295 CNS it was 16.6 µM; in the assay on A498 renal it was 1.9 µM. In addition, the GI50 with HCT-15 colon is 24.4 µM; in the assay on LOX IMVI melanoma it was 12 µM; in the assay with HCC-2998 colon it was 24.3 µM. For the same compound, the TGI in the assay with DU-145 prostate was 63.1 µM; in the assay with SK-OV-3 ovarian it was more than 100 µM; in the assay on SNB-75 CNS, 22.9 µM; in the assay with SR leukemia, 67.2 µM; with OVCAR-5 ovarian it was 42.8 µM; with SF-295 CNS, 81.3 µM. Also, the TGI in the assay on A498 renal was 5.23 µM; in the assay with HCT-15 colon, more than 100 µM; with LOX IMVI melanoma, 29.4 µM; with HCC-2998 colon, 80.4 µM.

For the compound `COc1cc(/C(C#N)=C/c2ccc3c(c2OC)OCO3)cc2c1OCO2`, the GI50 is 0.122 µM in the assay with DU-145 prostate; 0.113 µM with SK-OV-3 ovarian; 0.0878 µM with SNB-75 CNS; 0.0244 µM in the assay on SR leukemia; 0.823 µM with OVCAR-5 ovarian; 0.0428 µM in the assay on SF-295 CNS. Besides, the GI50 with A498 renal is 0.051 µM; with HCT-15 colon, 0.0748 µM; in the assay on LOX IMVI melanoma, 0.07 µM; in the assay on HCC-2998 colon, 0.182 µM. The TGI with DU-145 prostate is 3.63 µM; in the assay with SK-OV-3 ovarian, 14.2 µM; in the assay with SNB-75 CNS, 3.42 µM; with SR leukemia, 5.37 µM; in the assay with OVCAR-5 ovarian, more than 80.2 µM; in the assay with SF-295 CNS, 4.36 µM. Besides, the TGI in the assay on A498 renal is 0.785 µM; in the assay on HCT-15 colon it was more than 100 µM; in the assay on LOX IMVI melanoma, 20.3 µM; in the assay with HCC-2998 colon, 10.8 µM.

Take `CS(=O)(=O)CCNCc1nc(-c2ccc3ncnc(Nc4ccc(F)c(Cl)c4)c3c2)cs1`: the GI50 was 5.49 µM with DU-145 prostate; 1.96 µM in the assay on SK-OV-3 ovarian; more than 18.3 µM with SNB-75 CNS; more than 14 µM in the assay on SR leukemia; more than 25 µM in the assay with OVCAR-5 ovarian; more than 25 µM in the assay on SF-295 CNS. For the same compound, the GI50 is 3.32 µM in the assay on A498 renal, 17.5 µM in the assay with HCT-15 colon, 14.1 µM with LOX IMVI melanoma and more than 25 µM in the assay with HCC-2998 colon. In addition, the TGI in the assay on DU-145 prostate is more than 25 µM; with SK-OV-3 ovarian, 11 µM; in the assay with SNB-75 CNS, more than 25 µM; in the assay on SR leukemia it was more than 22.2 µM; with OVCAR-5 ovarian, more than 25 µM; in the assay with SF-295 CNS it was more than 25 µM. The TGI was 20.5 µM in the assay with A498 renal, more than 25 µM with HCT-15 colon, more than 25 µM with LOX IMVI melanoma and more than 25 µM in the assay with HCC-2998 colon.

Regarding `CNC(=O)c1cc(OC2CCC(NC(=O)Nc3ccc(Cl)c(C(F)(F)F)c3)CC2)ccn1` (centres undefined), the GI50 in the assay with DU-145 prostate is 12.8 µM; in the assay on SK-OV-3 ovarian it was 18.8 µM; with SNB-75 CNS, 16 µM; in the assay on SR leukemia it was 4.42 µM; with OVCAR-5 ovarian, 12.5 µM; with SF-295 CNS it was 4.95 µM. Besides, the GI50 is 8.14 µM in the assay with A498 renal, 6.17 µM in the assay on HCT-15 colon, 4.96 µM in the assay on LOX IMVI melanoma and 7 µM in the assay on HCC-2998 colon. Besides, the TGI in the assay on DU-145 prostate was 32.5 µM; in the assay with SK-OV-3 ovarian, 40.1 µM; with SNB-75 CNS, 38.9 µM; in the assay with SR leukemia, 32.7 µM; with OVCAR-5 ovarian, 31.1 µM; in the assay with SF-295 CNS, 26.6 µM. Moreover, the TGI in the assay with A498 renal is 22.1 µM; with HCT-15 colon, 23.6 µM; in the assay with LOX IMVI melanoma, 22.2 µM; in the assay on HCC-2998 colon, 19.2 µM.

For the origin of these results see PubChem BioAssay (NCI).
